Measurements published in ChEMBL document CHEMBL3272225, “Potential carcinostatics. Synthesis and biological properties of d- and 1-beta,beta-difluoroaspartic acid and beta,beta-difluoroasparagine” (J Med Chem, 1977).
pKi: −log10 of the molar value. Activity calls are given as the source filed them. No cut-off for these calls is given here.

Legend:
Mus musculus = organism: Mus musculus; test: Growth inhibition of mouse 3T3-F cells assessed as cell growth after 24 hrs by Coulter counting method; format: functional
L5178Y = test: Antitumor activity against mouse L5178Y cells allografted in CDF-1 mouse assessed as cytostatic activity administered on day 1 to day 9 post challenge; format: functional
[1] = Competitive inhibition of aspartate aminotransferase in rat liver homogenate by Lineweaver-Burk plot method; format: tissue-based
[2] = Growth inhibition of mouse 3T3-F cells at 10 ug/ml assessed as cell growth after 24 hrs by Coulter counting method; format: functional
[3] = Growth inhibition of mouse 3T3-F cells assessed as cell growth at 100 ug/ml after 24 hrs by Coulter counting method; format: functional

**Q.** With `N[C@H](C(=O)O)C(F)(F)C(=O)O` as the compound, how does the Activity (Mus musculus) read?
**A.** inactive

**Q.** Which Activity (L5178Y) does the source give for `NC(C(=O)O)C(F)(F)C(=O)O` (racemic) here?
**A.** inactive

**Q.** What about the pKi [1] of the same compound?
**A.** 3.00

**Q.** With `N[C@@H](C(=O)O)C(F)(F)C(=O)O` as the compound, how does the Cell growth at 10 µg/mL [2] read?
**A.** 75%

**Q.** And the Cell growth at 100 µg/mL [3]?
**A.** 12%

**Q.** Which Activity (L5178Y) does the source give for `NC(=O)C(F)(F)C(N)C(=O)O` (racemic) here?
**A.** inactive
